Results published in patent US20120269725A1, “TARGETED RADIOLABELED COMPOUNDS AND THEIR USE FOR THE TREATMENT AND DIAGNOSIS OF CANCER” (priority 2009, published 2012).

What was measured:
[1] = tested on: U-87 human glioblastoma cells; experiment: Cell survival of U-87 human glioblastoma cells after treatment; type: cell-based; details: 24 h exposure, concentration-dependent survival (FIG. 24)
Protocol: U-87 MG cell line is an epithelial cell line derived from a grade IV glioblastoma resected from the brain of a patient. U-87 cells were plated in four flasks for each isomer and allowed to attach for 24 h. The compounds 6b fast and 6b slow were added to U-87 cells at […] (37 kBq/mL). Cells were incubated with the radioactive compounds for 24 h and the radioactive medium was removed. Cells were washed twice with fresh, nonradioactive medium and trypsinized. After appropriate dilutions in full growth medium, cells were re-plated in fresh medium (n=4 per compound). After 96 hours in culture, cells were harvested and their numbers counted using a Cellometer® disposable cell counting chamber (Nexcelom Bioscience, Lawrence, Mass.). Four flasks used as controls were sham-treated with a volume of PBS used to dissolve radioactive compounds. The control flasks were processed as described for the radioactive compound-treated cells. […] The surviving fraction is calculated as the ratio of cell number recovered from flasks treated with radioactive compounds to the cell number recovered from the control flasks. Averages and standard deviations are shown. The cell survival was also measured in a 96-well and 6-well formats.
U-87 cells were plated in 6-well plates from suspension. The compounds 6b fast and 6b slow were added with media on day 0. […] The OD was read at 560 nm. […]

[2] = tested on: U-87 human glioblastoma cells; experiment: DNA uptake and subcellular distribution of radioactivity in U-87 cells; type: cell-based
Protocol: U-87 cells were plated in T75 flasks and allowed to attach for 24 h. Compounds 6b-fast and 6b slow were added to cells at 1 μCi/mL (37 kBq/mL) and 5 μCi/mL (185 kBq/mL). Cells were incubated with radioactive compounds from 24 h to 120 h. The radioactive medium was removed. Cells were washed twice with fresh, nonradioactive medium. Cells were trypsinized and their numbers and radioactive content determined. A similar study was also conducted in 96- and 24-well formats, which allowed more rapid analyses of several concentrations of 6b. Harvested cells were processed using NE-PER nuclear and cytoplasmic extraction reagents (Thermo Fisher Scientific, Rockford, Ill.). […] U-87 cells plated in T75 flasks and allowed to grow for 24 h. Cells were treated with […] 6b fast and 6b slow for 40 h at which time the radioactive medium was removed and replaced with fresh media. Cells were grown in fresh medium for additional 24 h and 72 h. Cells were trypsinized and DNA was extracted using the Qiagen method (Qiagen Genomic-tip 20/G; Qiagen, Valencia, Calif.).

[3] = tested on: U-87 human glioblastoma cells; experiment: Concentration-dependent uptake by U-87 cells; type: cell-based; details: 40 h exposure, 96-well plates
Protocol: U-87 cells were plated in 96-well plates and allowed to attach for ˜48 hours. The used medium was replaced with 6b-containing medium and the cells were grown in the presence of radioactivity for 40 h. The radioactive media was removed after 40 h of exposure. Aliquots (0.05 mL) of the radioactive medium were counted in a gamma counter. Cell monolayers were washed with PBS, PBS-methanol (2 min), and fixed in methanol (10 min). Fixed cells were allowed to dry and were stained with 0.25% crystal violet (10 min). To each well 0.1 mL ethanol was added (2 h) followed by 0.1 mL 3.5 mM SDS in water. OD at 560 nm was read. Solubilized cells were transferred into gamma counter tubes to determine their radioactive content. The plate was divided into individual wells and these were also added to the gamma counter tubes. FIG. 27 illustrates the concentration-dependent uptake.

[4] = tested on: subcutaneous LS174T tumors (human colorectal adenocarcinoma); experiment: Biodistribution, clearance and planar imaging in athymic mice bearing subcutaneous LS174T xenografts; type: in vivo, athymic NCr-nu/nu mice; details: for clearance from blood and normal tissues: IV administration
Protocol: The in vivo properties and pharmacology of several compounds of the present invention were initially tested in athymic mice bearing subcutaneous LS174T tumors (human colorectal adenocarcinoma), which have several desirable properties such as rapid growth when implanted subcutaneously (SQ), good vascularization and the availability of considerable historical data for the parent compound IUdR. The clearance rates from blood, tumor, and associated organs were analyzed to determine the structure-pharmacokinetics relationship. The first compounds studied were 6b-fast and 6b-slow. Four-to-six-weeks old female athymic NCr-nu/nu mice (NCI-Frederic, Md., USA) were allowed to acclimate in Applicants' facility after delivery for no less than 5 days. All protocols involving animals were approved by the University of Nebraska Institutional Animal Care and Use Committee. Mice were housed in microisolator cages with free access to sterilized standard rodent diet and water. LS174T cells in 0.1 mL of serum-free medium were implanted SQ at 5×10^6 cells/mouse. One week later identification transponders were implanted, also SQ. Body weights and tumor sizes were monitored twice weekly, and approximately 10 days after the cell implant, mice were randomized for biodistribution studies.
Each of the two isomers, 6b-fast and 6b-slow, was tested independently in separate groups of mice. The comparison to the parent compound, IUdR, was made by co-injecting ^131IUdR with a particular ^125I-labeled diastereomer. Compounds were administered intravenously (IV) via a tail vein.
Biodistribution was conducted at 1 h, 4 h, 24 and 48 h after the administration of radiolabeled compounds (n=6 per time point). The injection doses contained approximately 1 μCi (37 kBq) ^131IUdR and 5 μCi (185 kBq) ^125I-labeled 6b-fast or 6b-slow dissolved in 0.2 mL phosphate buffered saline containing 0.1% bovine serum albumin, pH 7.2 (PBS). All syringes were weighted after loading with the compound solution and immediately after the injection to determine the weight of the injected dose. Triplicate standards of the injected dose were prepared in PBS and counted in a gamma counter just before the beginning of the experiment. The radioactive content of these standards was also determined alongside all tissues after the necropsy to correct the tissue uptake for the decay of the radioisotope. Blood, liver, spleen, heart, lungs, kidneys, brain, tumor and tail were collected during necropsy. Tissues were rinsed in ice-cold saline, patted dry and weighed. The tail was collected to validate the quality of the IV injections.
FIG. 7 presents whole body images for a typical time course distribution (24 h, 48 h, and 72 h) of 6b administered as a diastereomeric mixture in LS174T-bearing athymic mice. The images were acquired 1, 2, and 3 days after the administration of the compound. […] It is also apparent that based on pharmacokinetics, the use of these compounds can be tailored to a specific malignancy and its anatomical location.

[5] = tested on: advanced OVCAR-3 tumors; experiment: Therapy with fractionated doses in advanced OVCAR-3 tumors; type: in vivo, athymic NCr-nu/nu mice; details: IP fractionated doses
Protocol: Female athymic NCr-nu/nu mice were received from NCI-Frederic (MD, USA). Identification transponders were implanted SQ in mice acclimated for one week. When mice reached the age of 8-weeks, all mice received IP implant of 5.6×10^8 OVCAR-3 cells/mouse in 0.5 mL media without serum. This cancer cell load is double the size of implant described in Example 6 and allows for a rapid development of the advanced stages of the tumor. One weeks later mice were separated into […] via a lottery as follows: mice in the control group were left untreated; mice the vehicle group received 0.3 mL vehicle (PBS containing 0.5% albumin and 5% DMSO); the remaining mice in groups ×1, ×2, and ×3 received an IP injection of 8b-slow in 0.3 mL vehicle; two weeks later mice in groups ×2 and ×3 received an IP injection of 8b-slow in 0.3 mL vehicle; and four weeks after the first dose mice in group ×3 received an IP injection of 8b-slow in 0.3 mL vehicle. Using the same schedule, mice in the vehicle group were given IP injections of 0.3 mL vehicle. The average total administered doses were as follows: group ×1: 0.5 mCi […]; group ×2: 1 mCi (37 MBq), and group ×3: 1.5 mCi (55.5 MBq). All mice were killed six weeks after the administration of the first dose. […] The data analyses confirmed that the observed differences are statistically significant. […]

[6] = tested on: early stage OVCAR-3 tumors; experiment: Dose-response therapy in early stage OVCAR-3 tumors; type: in vivo, athymic NCr-nu/nu mice
Protocol: Female athymic NCr-nu/nu mice were received from NCI-Frederick (MD, USA) and were allowed to acclimate in Applicants' facilities until the age of 8 weeks. After this period of acclimation, 2.5×10^8 OVCAR-3 cells were implanted into 36 mice. Four days later, each mouse received SQ transponders (micro-identification chips) and mice were divided into three groups at random: control mice receiving sham IP injections of 0.6 mL vehicle (n=12); mice in the high dose group were treated with one IP dose of 0.7 mCi (26 MBq) 8b slow in 0.6 mL vehicle (n=12); and mice the low dose group were treated with one IP dose of 0.29 mCi (10.7 MBq) 8b slow in 0.6 mL vehicle (n=12).
Five weeks after treatment, all mice were sacrificed and full necropsy was performed. A single dose of 8b slow given at the early stages of the disease reduces the tumor burden by […]. The response of solid tumors seems better than the cells in ascites, […] in the weight of the solid tumor deposits (FIG. 17). The uptake and retention of radioactivity was measured in several tissues and in tumor. The radioactivity levels in blood are ˜30 times lower than in the tumor cells in ascites and ˜10 times lower than in the solid tumors.

[7] = five weeks after single IP dose
[8] = single IP dose, five weeks after treatment

Compound	cytotoxicity to U-87 cells, slow versus fast isomer [1]	cellular and nuclear uptake, slow versus fast isomer [2]	uptake by U-87 cells compared to 6b fast [3]	clearance from blood and normal tissues [4]	relationship between tumor size and total administered doses ([5]; total 0.5, 1, 1.5 mCi, six weeks after first dose)	hematological adverse effects (hemoglobin and hematocrit) ([5]; total 0.5-1.5 mCi)	liver uptake [6, 7]	radioactivity level in blood, times lower than in the solid tumors [6, 7]	radioactivity level in blood, times lower than in the tumor cells in ascites [6, 7]	adverse effects by hemoglobin and hematocrit levels ([6]; single IP dose 0.29 or 0.7 mCi)	reduction in the weight of the solid tumor deposits [6, 8]	reduction of tumor burden [6, 8]	major site of normal tissue uptake ([4]; biodistribution data)
O=c1[nH]c(=O)n([C@H]2C[C@H](O)[C@@H](COP3(=O)OCc4ccccc4O3)O2)cc1[125I] (some centres unmarked) [6b slow, 5-[^125I]-Iodo-5′-O-cycloSaligenyl-2′-deoxyuridine Monophosphate]	more cytotoxic to U-87 cells compared to the 6b fast isomer	greater overall cellular and nuclear uptake when compared to 6b fast	almost a two-fold greater uptake	–	–	–	–	–	–	–	–	–	–
CC(C)(C)c1cc(C(C)(C)C)c2c(c1F)COP(=O)(OC[C@H]1O[C@@H](n3cc([125I])c(=O)[nH]c3=O)C[C@@H]1O)O2 (some centres unmarked) [8b slow, 5-[^125I]-Iodo-5′-O-[cyclo-3,5-di-(tert-butyl)-6-fluoroSaligenyl]-2′-deoxyuridine Monophosphate]	–	–	–	rapid clearance from blood and normal tissues	unambiguous dose-response relationship	do not produce any significant hematological adverse effects	< 0.003 % ID/g	~10 times	~30 times	not causing noticeable adverse effects	> 300%	> 230%	–
CC(C)(C)c1cc(C(C)(C)C)c2c(c1F)COP(=O)(OC[C@H]1O[C@@H](n3cc([125I])c(=O)[nH]c3=O)C[C@@H]1O)O2 (some centres unmarked) [Compound 8b, 5-[^125I]-Iodo-5′-O-[cyclo-3,5-di-(tert-butyl)-6-fluoroSaligenyl]-2′-deoxyuridine Monophosphate]	–	–	–	very favorable blood clearance curve	–	–	–	–	–	–	–	–	liver is the major site of the normal tissue uptake
